Literature values as cited in patent US20060111347A1, “Substituted sulfones and methods of use” (AMGEN INC., priority 2004, published 2006).
No end group written: not given here.

Conditions: degraded by peptidases

## RPPGFSPFR [BK, Bradykinin]
  half-life of BK in plasma: approximately 17 seconds
